# Measured values: ChEMBL document CHEMBL4321854, “Discovery of a First-in-Class Mitogen-Activated Protein Kinase Kinase 1/2 Degrader” (J Med Chem, 2019)
# Activity calls are given as the source filed them. The rule behind the calls is not given here.
# Experiments:
# [1] = target: T1, von Hippel-Lindau disease tumor suppressor/Dual specificity mitogen-activated protein kinase kinase 1 (Homo sapiens) (UniProt Q02750+P40337); test: Protac activity against VHL/MEK1 in human HT-29 cells harboring with BRAF V600E variant assessed as degradation of MEK1 by measuring reduction in MEK1 protein level at 0.3 uM after 4 hrs by Western blot analysis relative to control; type: cell-based; parameters: scale not given: the % may be the effect or the level left
# T1 sequence (P40337 whole entry, looked up): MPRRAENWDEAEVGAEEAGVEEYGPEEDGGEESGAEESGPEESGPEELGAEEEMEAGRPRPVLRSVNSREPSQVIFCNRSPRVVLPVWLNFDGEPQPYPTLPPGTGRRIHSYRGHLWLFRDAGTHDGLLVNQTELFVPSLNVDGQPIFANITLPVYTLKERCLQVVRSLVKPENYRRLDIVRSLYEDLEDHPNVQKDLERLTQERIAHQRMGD
# T1 sequence (Q02750 whole entry, looked up): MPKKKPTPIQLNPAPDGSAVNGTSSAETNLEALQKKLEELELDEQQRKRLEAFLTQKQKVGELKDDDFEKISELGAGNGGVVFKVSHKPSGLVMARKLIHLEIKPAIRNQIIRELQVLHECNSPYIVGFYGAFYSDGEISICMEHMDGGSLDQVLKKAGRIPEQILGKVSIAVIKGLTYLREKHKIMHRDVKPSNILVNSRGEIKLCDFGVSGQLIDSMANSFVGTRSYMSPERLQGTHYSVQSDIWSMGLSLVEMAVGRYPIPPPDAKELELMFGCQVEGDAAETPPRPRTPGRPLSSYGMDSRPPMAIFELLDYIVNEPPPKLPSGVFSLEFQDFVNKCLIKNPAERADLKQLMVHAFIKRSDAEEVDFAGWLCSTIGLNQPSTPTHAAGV
# [2] = target: T1, von Hippel-Lindau disease tumor suppressor/Dual specificity mitogen-activated protein kinase kinase 1 (Homo sapiens); test: (§1) Protac activity against VHL/MEK1 in human SK-MEL-28 cells harboring BRAF V600E variant assessed as degradation of MEK1 after 24 hrs by Western blot analysis; type: cell-based
# [3] = target: von Hippel-Lindau disease tumor suppressor/Dual specificity mitogen-activated protein kinase kinase 1 (Homo sapiens, UniProt Q02750+P40337, V600E); test: as §1; type: cell-based
# von Hippel-Lindau disease tumor suppressor/Dual specificity mitogen-activated protein kinase kinase 1, sequence (P40337 whole entry, looked up, stated change not applied): as the sequence (P40337 whole entry, looked up) above
# von Hippel-Lindau disease tumor suppressor/Dual specificity mitogen-activated protein kinase kinase 1, sequence (Q02750 whole entry, looked up, stated change not applied): as the sequence (Q02750 whole entry, looked up) above
# [4] = target: T1, von Hippel-Lindau disease tumor suppressor/Dual specificity mitogen-activated protein kinase kinase 1 (Homo sapiens); test: Protac activity against VHL/MEK1 in human SK-MEL-28 cells harboring with BRAF V600E variant assessed as degradation of MEK1 by measuring reduction in MEK1 protein level at 0.3 uM after 8 hrs by Western blot analysis relative to control; type: cell-based; parameters: scale not given: the % may be the effect or the level left
# [5] = target: von Hippel-Lindau disease tumor suppressor/Dual specificity mitogen-activated protein kinase kinase 2/Dual specificity mitogen-activated protein kinase kinase 1 (Homo sapiens) (UniProt P36507+Q02750+P40337); test: Protac activity against VHL/MEK1/2 in human SK-MEL-28 cells harboring with BRAF V600E variant assessed as reduction in phosphorylation of MEK at S218/222 residues after 24 hrs by Western blot analysis; type: cell-based
# von Hippel-Lindau disease tumor suppressor/Dual specificity mitogen-activated protein kinase kinase 2/Dual specificity mitogen-activated protein kinase kinase 1 (Homo sapiens), sequence (P36507 whole entry, looked up): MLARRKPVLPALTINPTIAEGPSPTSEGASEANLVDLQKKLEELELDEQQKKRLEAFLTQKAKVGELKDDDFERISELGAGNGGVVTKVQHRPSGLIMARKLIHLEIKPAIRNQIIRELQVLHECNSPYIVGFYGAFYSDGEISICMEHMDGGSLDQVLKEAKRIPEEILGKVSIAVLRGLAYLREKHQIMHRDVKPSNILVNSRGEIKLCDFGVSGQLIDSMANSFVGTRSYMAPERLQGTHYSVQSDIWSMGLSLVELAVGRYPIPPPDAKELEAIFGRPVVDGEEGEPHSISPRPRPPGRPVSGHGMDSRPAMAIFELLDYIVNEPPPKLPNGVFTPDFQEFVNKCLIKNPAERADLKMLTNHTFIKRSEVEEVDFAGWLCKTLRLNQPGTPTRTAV
# von Hippel-Lindau disease tumor suppressor/Dual specificity mitogen-activated protein kinase kinase 2/Dual specificity mitogen-activated protein kinase kinase 1 (Homo sapiens), sequence (P40337 whole entry, looked up): as the sequence (P40337 whole entry, looked up) above
# von Hippel-Lindau disease tumor suppressor/Dual specificity mitogen-activated protein kinase kinase 2/Dual specificity mitogen-activated protein kinase kinase 1 (Homo sapiens), sequence (Q02750 whole entry, looked up): as the sequence (Q02750 whole entry, looked up) above
# [6] = target: von Hippel-Lindau disease tumor suppressor/Cullin-9 (Homo sapiens) (UniProt P40337+Q8IWT3); test: Protac activity against VHL/cullin9 in human HT-29 cells harboring with BRAF V600E variant assessed as cullin9 protein level at 0.1 uM after 10 hrs by Western blot analysis; type: cell-based
# [7] = target: T1, von Hippel-Lindau disease tumor suppressor/Dual specificity mitogen-activated protein kinase kinase 1 (Homo sapiens); test: Protac activity against VHL/MEK1 in human HT-29 cells harboring with BRAF V600E variant assessed as degradation of MEK1 by measuring reduction in MEK1 protein level at 0.1 to 0.3 uM after 2 hrs by Western blot analysis; type: cell-based
# [8] = system: UACC-257; test: Effect on total ERK protein expression in human UACC257 cells at 0.001 to 5 uM after 24 hrs by Western blot analysis; type: functional, cell-based
# [9] = target: von Hippel-Lindau disease tumor suppressor/Dual specificity mitogen-activated protein kinase kinase 2 (Homo sapiens, UniProt P36507+P40337, V600E); test: (§2) Protac activity against VHL/MEK2 in human UACC257 cells harboring BRAF V600E variant assessed as degradation of MEK2 after 24 hrs by Western blot analysis; type: cell-based
# von Hippel-Lindau disease tumor suppressor/Dual specificity mitogen-activated protein kinase kinase 2, sequence (P36507 whole entry, looked up, stated change not applied): as the sequence (P36507 whole entry, looked up) above
# von Hippel-Lindau disease tumor suppressor/Dual specificity mitogen-activated protein kinase kinase 2, sequence (P40337 whole entry, looked up, stated change not applied): as the sequence (P40337 whole entry, looked up) above
# [10] = target: von Hippel-Lindau disease tumor suppressor/Dual specificity mitogen-activated protein kinase kinase 2 (Homo sapiens) (UniProt P36507+P40337); test: as §2; type: cell-based
# von Hippel-Lindau disease tumor suppressor/Dual specificity mitogen-activated protein kinase kinase 2 (Homo sapiens), sequence (P36507 whole entry, looked up): as the sequence (P36507 whole entry, looked up) above
# von Hippel-Lindau disease tumor suppressor/Dual specificity mitogen-activated protein kinase kinase 2 (Homo sapiens), sequence (P40337 whole entry, looked up): as the sequence (P40337 whole entry, looked up) above
# [11] = target: T1, von Hippel-Lindau disease tumor suppressor/Dual specificity mitogen-activated protein kinase kinase 1 (Homo sapiens); test: Protac activity against VHL/MEK1 in human COLO205 cells harboring with BRAF V600E variant assessed as degradation of MEK1 at 3 to 5 uM after 24 hrs by Western blot analysis; type: cell-based
smiles,measurement,setting,value
Cc1ncsc1-c1ccc([C@H](C)NC(=O)[C@@H]2C[C@@H](O)CN2C(=O)[C@@H](NC(=O)CCCCCCCCCCNCCCONC(=O)c2ccc(F)c(F)c2Nc2ccc(I)cc2F)C(C)(C)C)cc1,Activity,[1],> 50%
same,Activity,[2],Dose-dependent effect
same,DC50,[3],0.031 µM
same,Activity,[4],> 80%
same,Activity,[5],Dose-dependent effect
same,Activity,[6],inactive
same,Activity,[7],Active
same,Activity,[8],inactive
same,DC50,[9],0.027 µM
same,Activity,[10],Dose-dependent effect
same,Activity,[11],Active
